{
  "source": "patent US20250263376A1",
  "about": "“(E)-N-CINNAMOYLAMINOALKANOLS WITH MELANOGENESIS INHIBITORY ACTIVITY” (Uniwersytet Jagiellonski, priority 2024, published 2025)",
  "key": {"tyrosinase [1]": {"molecular_target": "tyrosinase", "details": "literature [6]; read-out: IC50, tyrosinase diphenolase activity; cited from earlier work"}, "[2]": {"details": "cream, 7-day application before UV exposure, compared to untreated skin; literature [8]; cited from earlier work"}, "[3]": {"system": "reconstituted human epidermis EpiDerm", "details": "21 h, 0.01 %", "protocol": "Phototoxicity Studies in a Model of Reconstructed Human Epidermis.\nAn epidermis with an area of 0.6 cm^2 was used. After receiving the tissue, the inserts were transferred to fresh medium and incubated in an incubator (5% CO2, 37° C.). All work during epidermis culture and application of the tested compounds and formulations was carried out in a laminar air flow chamber, using aseptic principles and sterile reagents and utensils. […] The applied solutions and formulation were spread on the surface of the inserts using a sterile glass bulb headed Pasteur pipette. The plates were incubated in the incubator for 21 hours, after which the inserts were transferred to new 6-well plates with 0.9 mL DBPS. 1 plate was exposed to UVA radiation at a dose of 6 J/cm^2 using a solar light simulator (Solar Simulator, Atlas) as its source (+UVA plate). The second plate was placed in a dark place outside the incubator for the same period of time (−UVA plate). After exposure, inserts from both plates were rinsed with DPBS, dried with a sterile cotton bud and placed in new plates containing 0.9 mL of fresh growth medium and incubated for 21 hours. […] After this time, the formed formazan was extracted into isopropanol and the absorbance of all samples was read at 270 nm."}, "[4]": {"system": "Balb/c 3T3 murine fibroblast cell line", "test": "Phototoxicity, neutral red uptake in Balb/c 3T3 fibroblasts", "experimental": "d) Phototoxicity Assessment Using the Balb/c 3T3 Murine Fibroblast Cell Line\nBalb/c 3T3 cells, which are an immortalized murine fibroblast cell line, were purchased at ATTC and cultured in the medium recommended by the manufacturer (DMEM GlutaMAX, newborn calf serum (BCS), antibiotics). After multiplication, cells were placed in 96-well plates, which were incubated for 24 hours, after which all wells of the plates were washed with 150 μL of balanced salt solution (HBSS). Then, after drying the plates, 100 μL of a solution of the tested compounds in HBSS with 2% FBS was added to each well and incubated for an hour. After this time, some of the plates were irradiated using the Suntest CPS+sunlight simulator from Atlas with appropriate filters cutting off radiation with a wavelength <320 nm (UVA radiation intensity 5 J/cm^2). The second part of the plates was placed in radiation-free conditions for the same period of time. After the exposure time, the liquid was removed from all plates and the wells were washed twice with 150 μL of HBSS, then supplemented with fresh culture medium and incubated for 24 hours in an incubator (37° C., 5% CO2). Viability was assessed in the neutral red uptake test, which is based on the ability of the dye to penetrate only into living cells. Dye uptake was confirmed by absorbance measurement at 540 nm. […] The appropriate coefficients were also calculated: mean phototoxic effect (MPE) and photoirritation factor (PIF). PIF is the ratio of the IC50 values of unirradiated to irradiated cells, while MPE is based on the comparison of concentration-response curves."}, "tyrosinase [5]": {"system": "tyrosinase", "details": "literature [11], cited from earlier work"}, "[6]": {"system": "human reconstructed epidermis Episkin", "test": "Skin irritation test in reconstructed human epidermis Episkin", "format": "cell-based", "details": "15 min exposure", "excerpt": "Skin Irritation Tests in a Reconstructed Human Epidermis Model (Episkin™)"}},
  "note": "Read-outs that look alike come from different tables or passages of the source.",
  "data": [
    {"smiles": "O=C(O)C=Cc1ccc(O)cc1", "note": "[4-Hydroxycinnamic acid]", "values": [
      {"measurement": "IC50", "setting": "tyrosinase [1]", "result": 500, "unit": "µM"},
      {"measurement": "inhibition of erythema formation", "setting": "[2]", "result": 77, "unit": "%"}
    ]},
    {"smiles": "CN(C)CCCN1c2ccccc2Sc2ccc(Cl)cc21", "note": "[Chlorpromazine, reference compound]", "values": [
      {"measurement": "Viability [% relative to water] ± SD, +UVA", "setting": "[3]", "result": "26.97 ± 6.05 % relative to water"},
      {"measurement": "Viability [% relative to water] ± SD, −UVA", "setting": "[3]", "result": "99.52 ± 9.41 % relative to water"},
      {"measurement": "phototoxic potential", "setting": "[4]", "result": "clearly indicate its phototoxic potential"},
      {"measurement": "MPE (mean phototoxic effect)", "setting": "[4]; mouse, 1 h", "result": 0.499},
      {"measurement": "PIF (photoirritation factor)", "setting": "[4]; mouse, 1 h", "result": 25.618}
    ]},
    {"smiles": "CCOC(=O)[C@H](Cc1ccccc1)NC(=O)/C=C/c1ccc(O)c(OC)c1", "note": "[N-[3-(4-hydroxy-3-methoxyphenyl)-1-oxo-2-propen-1-yl]-L-phenylalanine ethyl ester]", "values": [
      {"measurement": "type of tyrosinase inhibition", "setting": "tyrosinase [5]", "result": "mixed type of inhibition"},
      {"measurement": "IC50", "setting": "tyrosinase [5]; read-out: IC50, tyrosinase inhibition", "result": "0.185 ± 0.005", "unit": "µM"}
    ]},
    {"smiles": "CCCCCCCCCCCCOS(=O)(=O)[O-].[Na+]", "note": "[SDS, sodium dodecyl sulphate]", "values": [
      {"measurement": "IL-1α concentration in the culture medium", "setting": "[6]; 42 h incubation, compounds as PEG400 solutions 26 mg/cm^2, SDS 5% aqueous", "result": ">250", "unit": "pg/mL"},
      {"measurement": "tissue viability", "setting": "[6]; compared to the negative control (PBS and PEG400), 5% aqueous SDS", "result": 23.8, "unit": "%"}
    ]}
  ]
}
